Results as given in the supplement of paper PMC9013687.

Experiments:
Danio rerio embryo [1] = assay: EC50 Yolk sac size_Increase; conditions: exposure time: 4 dpf
Procedure: (§1)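 Zebrafish embryos (UFZ-OBI strain) were exposed from 2 hpf for 48 h (2 dpf) or 96 h (4 dpf) at 28 °C; spontaneous tail coiling was scored at 25 hpf. Morphological features from automated image analysis (FishInspector), heart rate and locomotor response were fitted with drc models. Quantal endpoints were dichotomised at 2.5 SD from controls and fitted with a log-logistic model; heart rate, pigmentation and STC were normalised to the replicate control mean. Betamethasone was tested as betamethasone dipropionate, diflorasone as diflorasone diacetate.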

Danio rerio embryo [2] = assay: EC10 Otolith-eye distance_Decrease; higher = less potent; conditions: exposure time: 4 dpf
Procedure: as §1

Danio rerio embryo [3] = assay: EC20 Eye size_Decrease; higher = less potent
Procedure: as §1

Danio rerio embryo [4] = assay: EC20 Head trunk angle_Decrease; higher = less potent; conditions: exposure time: 2 dpf
Procedure: as §1

Danio rerio embryo [5] = assay: EC50 Body length_Decrease
Procedure: as §1

Danio rerio embryo [6] = assay: EC10 Curvature_Increase; higher = less potent; conditions: exposure time: 2 dpf
Procedure: as §1

Danio rerio embryo [7] = assay: EC50 Curvature_Increase; conditions: exposure time: 2 dpf
Procedure: as §1

Danio rerio embryo [8] = assay: EC10 Pericard size_Increase; higher = less potent
Procedure: as §1

Danio rerio embryo [9] = assay: EC20 Eye-jaw distance_Decrease; higher = less potent; conditions: exposure time: 4 dpf
Procedure: as §1

Danio rerio embryo [10] = tested on: Danio rerio embryo
Procedure: as §1

Danio rerio embryo [11] = assay: EC50 Eye-jaw distance_Decrease; conditions: exposure time: 4 dpf
Procedure: as §1

Danio rerio embryo [12] = assay: EC20 Curvature_Increase; higher = less potent; conditions: exposure time: 2 dpf
Procedure: as §1

Danio rerio embryo [13] = assay: EC10 Bladder size_Decrease; higher = less potent; conditions: exposure time: 4 dpf
Procedure: as §1

Danio rerio embryo [14] = assay: EC20 Otolith-eye distance_Decrease; higher = less potent; conditions: exposure time: 4 dpf
Procedure: as §1

Danio rerio embryo [15] = assay: EC10 Yolk sac size_Increase; higher = less potent; conditions: exposure time: 4 dpf
Procedure: as §1

Danio rerio embryo [16] = conditions: exposure time: 4 dpf
Procedure: as §1

Danio rerio embryo [17] = assay: EC50 Otolith-eye distance_Decrease; conditions: exposure time: 4 dpf
Procedure: as §1

Danio rerio embryo [18] = assay: EC20 Pericard size_Increase; higher = less potent
Procedure: as §1

Danio rerio embryo [19] = assay: EC10 Body length_Decrease; higher = less potent
Procedure: as §1

Danio rerio embryo [20] = assay: EC20 Body length_Decrease; higher = less potent
Procedure: as §1

Danio rerio embryo [21] = assay: EC20 LMR dark; higher = less potent; conditions: exposure time: 4 dpf
Procedure: as §1

Danio rerio embryo [22] = assay: EC50 Pericard size_Increase
Procedure: as §1

Danio rerio embryo [23] = assay: EC10 Eye-jaw distance_Decrease; higher = less potent; conditions: exposure time: 4 dpf
Procedure: as §1

Danio rerio embryo [24] = assay: spontaneous tail coiling frequency (coils/min/embryo); higher = more spontaneous movement; conditions: 25 hpf
Procedure: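 Spontaneous tail coilings of zebrafish embryos exposed from 2 hpf were recorded at 24-25 hpf in 1-min videos and detected by a KNIME workflow from grey-value variance. Betamethasone was tested as the dipropionate, diflorasone as the diacetate.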

Danio rerio embryo [25] = assay: EC20 Yolk sac size_Increase; higher = less potent; conditions: exposure time: 4 dpf
Procedure: as §1

Danio rerio embryo [26] = assay: EC10 LMR dark; higher = less potent; conditions: exposure time: 4 dpf
Procedure: as §1

Danio rerio embryo [27] = assay: EC20 Bladder size_Decrease; higher = less potent; conditions: exposure time: 4 dpf
Procedure: as §1

Danio rerio embryo [28] = assay: EC10 Any effect; higher = less potent
Procedure: as §1

Danio rerio embryo [29] = assay: EC50 Bladder size_Decrease; conditions: exposure time: 4 dpf
Procedure: as §1

Danio rerio embryo [30] = assay: EC20 Any effect; higher = less potent
Procedure: as §1

CCCCOC(=O)[C@@H](C)Oc1ccc(Oc2ccc(C(F)(F)F)cn2)cc1 [fluazifop-p-butyl]
Conditions | EC10 Bladder size Decrease [µM] | EC10 Curvature Increase [µM] | EC10 Eye-jaw distance Decrease [µM] | EC10 LMR dark [µM] | EC10 Otolith-eye distance Decrease [µM] | EC10 Yolk sac size Increase [µM] | EC20 Bladder size Decrease [µM] | EC20 Curvature Increase [µM] | EC20 Eye-jaw distance Decrease [µM] | EC20 Head trunk angle Decrease [µM] | EC20 LMR dark [µM] | EC20 Otolith-eye distance Decrease [µM] | EC20 Yolk sac size Increase [µM] | EC50 Bladder size Decrease [µM] | EC50 Curvature Increase [µM] | EC50 Eye-jaw distance Decrease [µM] | EC50 LMR dark [µM] | EC50 Otolith-eye distance Decrease [µM] | EC50 Yolk sac size Increase [µM]
Danio rerio embryo [1] | – | – | – | – | – | – | – | – | – | – | – | – | – | – | – | – | – | – | 3.42
Danio rerio embryo [2] | – | – | – | – | 0.629 | – | – | – | – | – | – | – | – | – | – | – | – | – | –
Danio rerio embryo [4] | – | – | – | – | – | – | – | – | – | 3.89 | – | – | – | – | – | – | – | – | –
Danio rerio embryo [6] | – | 2.28 | – | – | – | – | – | – | – | – | – | – | – | – | – | – | – | – | –
Danio rerio embryo [7] | – | – | – | – | – | – | – | – | – | – | – | – | – | – | 6.37 | – | – | – | –
Danio rerio embryo [9] | – | – | – | – | – | – | – | – | 1.04 | – | – | – | – | – | – | – | – | – | –
Danio rerio embryo [11] | – | – | – | – | – | – | – | – | – | – | – | – | – | – | – | 2.36 | – | – | –
Danio rerio embryo [12] | – | – | – | – | – | – | – | 3.34 | – | – | – | – | – | – | – | – | – | – | –
Danio rerio embryo [13] | 0.78 | – | – | – | – | – | – | – | – | – | – | – | – | – | – | – | – | – | –
Danio rerio embryo [14] | – | – | – | – | – | – | – | – | – | – | – | 0.964 | – | – | – | – | – | – | –
Danio rerio embryo [15] | – | – | – | – | – | 2.23 | – | – | – | – | – | – | – | – | – | – | – | – | –
Danio rerio embryo [16] | – | – | – | – | – | – | – | – | – | – | – | – | – | – | – | – | 2.38 | – | –
Danio rerio embryo [17] | – | – | – | – | – | – | – | – | – | – | – | – | – | – | – | – | – | 2 | –
Danio rerio embryo [21] | – | – | – | – | – | – | – | – | – | – | 0.767 | – | – | – | – | – | – | – | –
Danio rerio embryo [23] | – | – | 0.645 | – | – | – | – | – | – | – | – | – | – | – | – | – | – | – | –
Danio rerio embryo [25] | – | – | – | – | – | – | – | – | – | – | – | – | 2.62 | – | – | – | – | – | –
Danio rerio embryo [26] | – | – | – | 0.362 | – | – | – | – | – | – | – | – | – | – | – | – | – | – | –
Danio rerio embryo [27] | – | – | – | – | – | – | 0.994 | – | – | – | – | – | – | – | – | – | – | – | –
Danio rerio embryo [29] | – | – | – | – | – | – | – | – | – | – | – | – | – | 1.51 | – | – | – | – | –

Conditions | EC10 Any effect [µM] | EC10 Body length Decrease [µM] | EC10 Pericard size Increase [µM] | EC20 Any effect [µM] | EC20 Body length Decrease [µM] | EC20 Eye size Decrease [µM] | EC20 Pericard size Increase [µM] | EC50 Any effect [µM] | EC50 Body length Decrease [µM] | EC50 Otolith [µM] | EC50 Pericard size Increase [µM] | spontaneous tail coiling frequency
Danio rerio embryo [3], exposure time: 2 dpf | – | – | – | – | – | 1.69 | – | – | – | – | – | –
Danio rerio embryo [3], exposure time: 4 dpf | – | – | – | – | – | 1.07 | – | – | – | – | – | –
Danio rerio embryo [5], exposure time: 2 dpf | – | – | – | – | – | – | – | – | 3.7 | – | – | –
Danio rerio embryo [5], exposure time: 4 dpf | – | – | – | – | – | – | – | – | 2.67 | – | – | –
Danio rerio embryo [8], exposure time: 2 dpf | – | – | 1.84 | – | – | – | – | – | – | – | – | –
Danio rerio embryo [8], exposure time: 4 dpf | – | – | 0.485 | – | – | – | – | – | – | – | – | –
Danio rerio embryo [10], exposure time: 2 dpf | – | – | – | – | – | – | – | 3.1 | – | 9.45 | – | –
Danio rerio embryo [10], exposure time: 4 dpf | – | – | – | – | – | – | – | 1.54 | – | – | – | –
Danio rerio embryo [18], exposure time: 2 dpf | – | – | – | – | – | – | 2.94 | – | – | – | – | –
Danio rerio embryo [18], exposure time: 4 dpf | – | – | – | – | – | – | 0.834 | – | – | – | – | –
Danio rerio embryo [19], exposure time: 2 dpf | – | 1.09 | – | – | – | – | – | – | – | – | – | –
Danio rerio embryo [19], exposure time: 4 dpf | – | 0.702 | – | – | – | – | – | – | – | – | – | –
Danio rerio embryo [20], exposure time: 2 dpf | – | – | – | – | 1.71 | – | – | – | – | – | – | –
Danio rerio embryo [20], exposure time: 4 dpf | – | – | – | – | 1.15 | – | – | – | – | – | – | –
Danio rerio embryo [22], exposure time: 2 dpf | – | – | – | – | – | – | – | – | – | – | 6.56 | –
Danio rerio embryo [22], exposure time: 4 dpf | – | – | – | – | – | – | – | – | – | – | 2.11 | –
Danio rerio embryo [24], 1.29 µM | – | – | – | – | – | – | – | – | – | – | – | 1.94
Danio rerio embryo [24], 1.93 µM | – | – | – | – | – | – | – | – | – | – | – | 1.98
Danio rerio embryo [24], 2.9 µM | – | – | – | – | – | – | – | – | – | – | – | 2.62
Danio rerio embryo [24], 4.35 µM | – | – | – | – | – | – | – | – | – | – | – | 1.95
Danio rerio embryo [24], 5.2 µM | – | – | – | – | – | – | – | – | – | – | – | 0.71
Danio rerio embryo [24], 6.52 µM | – | – | – | – | – | – | – | – | – | – | – | 1.41
Danio rerio embryo [24], 9.78 µM | – | – | – | – | – | – | – | – | – | – | – | 1.62
Danio rerio embryo [28], exposure time: 2 dpf | 0.469 | – | – | – | – | – | – | – | – | – | – | –
Danio rerio embryo [28], exposure time: 4 dpf | 0.368 | – | – | – | – | – | – | – | – | – | – | –
Danio rerio embryo [30], exposure time: 2 dpf | – | – | – | 0.942 | – | – | – | – | – | – | – | –
Danio rerio embryo [30], exposure time: 4 dpf | – | – | – | 0.624 | – | – | – | – | – | – | – | –
